Assay results published in ChEMBL document CHEMBL6109109, “Fatty acid binding protein 5 inhibitors as novel anticancer agents against metastatic castration-resistant prostate cancer” (Bioorg Med Chem, 2025).

Key:
Format in all cases: functional
[1] = tested on: PC-3; assay: Cytotoxicity against human PC-3 cells assessed as cell growth inhibition at […] measured after 72 hrs by MTT assay relative to control; details: dose 2.5 µM, read-out: GI
[2] = tested on: PC-3; assay: Cytotoxicity against human PC-3 cells assessed as cell growth inhibition at 1.25 uM measured after 72 hrs by MTT assay relative to control; details: read-out: GI
[3] = tested on: PC-3; assay: Cytotoxicity against human PC-3 cells assessed as cell growth inhibition at 0.625 uM measured after 72 hrs by MTT assay relative to control; details: read-out: GI
[4] = tested on: PC-3; assay: Synergistic anticancer activity against human PC-3 cells assessed as cell growth inhibition at […] measured after 72 hrs in presence of 0.00001 uM of topotecan by MTT assay relative to control; details: dose 2.5 µM, read-out: GI
[5] = tested on: PC-3; assay: Synergistic anticancer activity against human PC-3 cells assessed as cell growth inhibition at […] measured after 72 hrs in presence of 0.0001 uM of topotecan by MTT assay relative to control; details: dose 2.5 µM, read-out: GI
[6] = tested on: PC-3; assay: Synergistic anticancer activity against human PC-3 cells assessed as cell growth inhibition at […] measured after 72 hrs in presence of 0.001 uM of topotecan by MTT assay relative to control; details: dose 2.5 µM, read-out: GI
[7] = tested on: PC-3; assay: Synergistic anticancer activity against human PC-3 cells assessed as cell growth inhibition at […] measured after 72 hrs in presence of 0.01 uM of topotecan by MTT assay relative to control; details: dose 2.5 µM, read-out: GI
[8] = tested on: PC-3; assay: Synergistic anticancer activity against human PC-3 cells assessed as cell growth inhibition at […] measured after 72 hrs in presence of 0.1 uM of topotecan by MTT assay relative to control; details: dose 2.5 µM, read-out: GI
[9] = tested on: PC-3; assay: Synergistic anticancer activity against human PC-3 cells assessed as cell growth inhibition at […] measured after 72 hrs in presence of 1 uM of topotecan by MTT assay relative to control; details: dose 2.5 µM, read-out: GI
[10] = tested on: PC-3; assay: Synergistic anticancer activity against human PC-3 cells assessed as cell growth inhibition at […] measured after 72 hrs in presence of 10 uM of topotecan by MTT assay relative to control; details: dose 2.5 µM, read-out: GI
[11] = tested on: PC-3; assay: Synergistic anticancer activity against human PC-3 cells assessed as cell growth inhibition at 1.25 uM measured after 72 hrs in presence of 0.00001 uM of topotecan by MTT assay relative to control; details: read-out: GI
[12] = tested on: PC-3; assay: Synergistic anticancer activity against human PC-3 cells assessed as cell growth inhibition at 1.25 uM measured after 72 hrs in presence of 0.0001 uM of topotecan by MTT assay relative to control; details: read-out: GI
[13] = tested on: PC-3; assay: Synergistic anticancer activity against human PC-3 cells assessed as cell growth inhibition at 1.25 uM measured after 72 hrs in presence of 0.001 uM of topotecan by MTT assay relative to control; details: read-out: GI
[14] = tested on: PC-3; assay: Synergistic anticancer activity against human PC-3 cells assessed as cell growth inhibition at 1.25 uM measured after 72 hrs in presence of 0.01 uM of topotecan by MTT assay relative to control; details: read-out: GI
[15] = tested on: PC-3; assay: Synergistic anticancer activity against human PC-3 cells assessed as cell growth inhibition at 1.25 uM measured after 72 hrs in presence of 0.1 uM of topotecan by MTT assay relative to control; details: read-out: GI
[16] = tested on: PC-3; assay: Synergistic anticancer activity against human PC-3 cells assessed as cell growth inhibition at 1.25 uM measured after 72 hrs in presence of 1 uM of topotecan by MTT assay relative to control; details: read-out: GI
[17] = tested on: PC-3; assay: Synergistic anticancer activity against human PC-3 cells assessed as cell growth inhibition at 0.625 uM measured after 72 hrs in presence of 0.0001 uM of topotecan by MTT assay relative to control; details: read-out: GI
[18] = tested on: PC-3; assay: Synergistic anticancer activity against human PC-3 cells assessed as cell growth inhibition at 0.625 uM measured after 72 hrs in presence of 0.001 uM of topotecan by MTT assay relative to control; details: read-out: GI
[19] = tested on: PC-3; assay: Synergistic anticancer activity against human PC-3 cells assessed as cell growth inhibition at 0.625 uM measured after 72 hrs in presence of 0.01 uM of topotecan by MTT assay relative to control; details: read-out: GI
[20] = tested on: PC-3; assay: Synergistic anticancer activity against human PC-3 cells assessed as cell growth inhibition at 0.625 uM measured after 72 hrs in presence of 1 uM of topotecan by MTT assay relative to control; details: read-out: GI
[21] = tested on: PC-3; assay: Synergistic anticancer activity against human PC-3 cells assessed as cell growth inhibition at 0.625 uM measured after 72 hrs in presence of 10 uM of topotecan by MTT assay relative to control; details: read-out: GI
[22] = Cytotoxicity against mouse RCaP cells assessed as cell growth inhibition at 1.25 uM measured after 72 hrs by MTT assay relative to control; details: read-out: GI
[23] = Cytotoxicity against mouse RCaP cells assessed as cell growth inhibition at 0.625 uM measured after 72 hrs by MTT assay relative to control; details: read-out: GI
[24] = Synergistic anticancer activity against mouse RCaP cells assessed as cell growth inhibition at 1.25 uM measured after 72 hrs in presence of 0.00001 uM of topotecan by MTT assay relative to control; details: read-out: GI
[25] = Synergistic anticancer activity against mouse RCaP cells assessed as cell growth inhibition at 1.25 uM measured after 72 hrs in presence of 0.001 uM of topotecan by MTT assay relative to control; details: read-out: GI
[26] = Synergistic anticancer activity against mouse RCaP cells assessed as cell growth inhibition at 1.25 uM measured after 72 hrs in presence of 0.1 uM of topotecan by MTT assay relative to control; details: read-out: GI
[27] = Synergistic anticancer activity against mouse RCaP cells assessed as cell growth inhibition at 1.25 uM measured after 72 hrs in presence of 1 uM of topotecan by MTT assay relative to control; details: read-out: GI
[28] = Synergistic anticancer activity against mouse RCaP cells assessed as cell growth inhibition at 0.625 uM measured after 72 hrs in presence of 0.00001 uM of topotecan by MTT assay relative to control; details: read-out: GI
[29] = Synergistic anticancer activity against mouse RCaP cells assessed as cell growth inhibition at 0.625 uM measured after 72 hrs in presence of 0.0001 uM of topotecan by MTT assay relative to control; details: read-out: GI
[30] = Synergistic anticancer activity against mouse RCaP cells assessed as cell growth inhibition at 0.625 uM measured after 72 hrs in presence of 0.001 uM of topotecan by MTT assay relative to control; details: read-out: GI
[31] = Synergistic anticancer activity against mouse RCaP cells assessed as cell growth inhibition at 0.625 uM measured after 72 hrs in presence of 0.01 uM of topotecan by MTT assay relative to control; details: read-out: GI
[32] = Synergistic anticancer activity against mouse RCaP cells assessed as cell growth inhibition at 0.625 uM measured after 72 hrs in presence of 0.1 uM of topotecan by MTT assay relative to control; details: read-out: GI
[33] = Synergistic anticancer activity against mouse RCaP cells assessed as cell growth inhibition at 0.625 uM measured after 72 hrs in presence of 1 uM of topotecan by MTT assay relative to control; details: read-out: GI
[34] = Synergistic anticancer activity against mouse RCaP cells assessed as cell growth inhibition at 0.625 uM measured after 72 hrs in presence of 10 uM of topotecan by MTT assay relative to control; details: read-out: GI

SMILES: COc1ccccc1[C@H]1[C@H](C(=O)O)[C@H](c2ccccc2OC)[C@H]1C(=O)Oc1cc(-c2ccc3c(c2)OCO3)ccc1-c1ccccc1
- inhibition of growth at […] [1]: 7.37%
- inhibition of growth at 1.25 µM [2]: -2.3%
- inhibition of growth at 0.625 µM [3]: -2.63%
- inhibition of growth at […] [4]: 15.1%
- inhibition of growth at […] [5]: 25.3%
- inhibition of growth at […] [6]: 34.3%
- inhibition of growth at […] [7]: 54.6%
- inhibition of growth at […] [8]: 67.4%
- inhibition of growth at […] [9]: 90.5%
- inhibition of growth at […] [10]: 92.9%
- inhibition of growth at 1.25 µM [11]: 12.9%
- inhibition of growth at 1.25 µM [12]: 14.7%
- inhibition of growth at 1.25 µM [13]: 33.1%
- inhibition of growth at 1.25 µM [14]: 55.8%
- inhibition of growth at 1.25 µM [15]: 72.5%
- inhibition of growth at 1.25 µM [16]: 92.3%
- inhibition of growth at 0.625 µM [17]: 8.03%
- inhibition of growth at 0.625 µM [18]: 16.9%
- inhibition of growth at 0.625 µM [19]: 48%
- inhibition of growth at 0.625 µM [20]: 90.2%
- inhibition of growth at 0.625 µM [21]: 93.2%
- inhibition of growth at 1.25 µM [22]: -1.17%
- inhibition of growth at 0.625 µM [23]: -2.53%
- inhibition of growth at 1.25 µM [24]: -1.87%
- inhibition of growth at 1.25 µM [25]: 0.37%
- inhibition of growth at 1.25 µM [26]: 90%
- inhibition of growth at 1.25 µM [27]: 97.6%
- inhibition of growth at 0.625 µM [28]: -2.77%
- inhibition of growth at 0.625 µM [29]: -3.7%
- inhibition of growth at 0.625 µM [30]: -4.87%
- inhibition of growth at 0.625 µM [31]: 10%
- inhibition of growth at 0.625 µM [32]: 90.2%
- inhibition of growth at 0.625 µM [33]: 97.9%
- inhibition of growth at 0.625 µM [34]: 99.2%
